Columns and labels:
Assay in all cases: relative viability (nuclei count vs DMSO), 5 days (fraction); higher = more cells survive
AZD6482 + OSI-027 = compound: Cc1cc([C@@H](C)Nc2ccccc2C(=O)O)c2nc(N3CCOCC3)cc(=O)n2c1 [AZD6482] + COc1cccc2cc(-c3nc([C@H]4CC[C@H](C(=O)O)CC4)n4ncnc(N)c34)[nH]c12 [OSI-027] (partner 0.5 µM)
In short: (§1)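 Nuclei were stained with Hoechst during a one-step fixation (final 0.05% Triton X-100, 1% formaldehyde, 1 ug/ml Hoechst) carried out 5 days after dosing, then counted on 4× images. The cells, lung cancer lines in 1536-well plates, had been dosed by pin tool the day after seeding with one drug alone or a fixed anchor-drug dose plus five library-drug doses (not always all listed) in √10 steps. Relative viability is the nuclei count in treated wells divided by that in vehicle wells, and each value is the median of duplicate plates.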

[1] = compound: COc1cc2nc(N3CCCN(C)CC3)nc(NC3CCN(Cc4ccccc4)CC3)c2cc1OC + COc1cccc2cc(-c3nc([C@H]4CC[C@H](C(=O)O)CC4)n4ncnc(N)c34)[nH]c12 [OSI-027] (partner 0.5 µM)
In short: as §1

AZD6482 + Navitoclax = compound: Cc1cc([C@@H](C)Nc2ccccc2C(=O)O)c2nc(N3CCOCC3)cc(=O)n2c1 [AZD6482] + CC1(C)CCC(c2ccc(Cl)cc2)=C(CN2CCN(c3ccc(C(=O)NS(=O)(=O)c4ccc(N[C@H](CCN5CCOCC5)CSc5ccccc5)c(S(=O)(=O)C(F)(F)F)c4)cc3)CC2)C1 [Navitoclax] (partner 0.5 µM)
In short: as §1

AZD6482 + Pictilisib = compound: Cc1cc([C@@H](C)Nc2ccccc2C(=O)O)c2nc(N3CCOCC3)cc(=O)n2c1 [AZD6482] + CS(=O)(=O)N1CCN(Cc2cc3nc(-c4cccc5[nH]ncc45)nc(N4CCOCC4)c3s2)CC1 [Pictilisib] (partner 1 µM)
In short: as §1

Q: For UMC-11, which relative viability (AZD6482 + OSI-027; first compound 0.08 µM) is on record?
A: 0.448

Q: And the relative viability (AZD6482 + OSI-027; first compound 0.253 µM)?
A: 0.464

Q: What about the relative viability (AZD6482 + OSI-027; first compound 0.8 µM) of the same cell line?
A: 0.497

Q: And the relative viability (AZD6482 + OSI-027; first compound 2.53 µM)?
A: 0.459

Q: What about the relative viability (AZD6482 + OSI-027; first compound 8 µM) of the same cell line?
A: 0.47

Q: What about the relative viability ([1]; first compound 0.2 µM) of the same cell line?
A: 0.534

Q: What about the relative viability ([1]; first compound 0.6325 µM) of the same cell line?
A: 0.461

Q: What about the relative viability ([1]; first compound 2 µM) of the same cell line?
A: 0.398

Q: And the relative viability ([1]; first compound 6.325 µM)?
A: 0.284

Q: And the relative viability (AZD6482 + Navitoclax; first compound 0.08 µM)?
A: 0.331

Q: And the relative viability (AZD6482 + Navitoclax; first compound 0.253 µM)?
A: 0.329

Q: What about the relative viability (AZD6482 + Navitoclax; first compound 0.8 µM) of the same cell line?
A: 0.313

Q: What about the relative viability (AZD6482 + Navitoclax; first compound 2.53 µM) of the same cell line?
A: 0.309

Q: What about the relative viability (AZD6482 + Navitoclax; first compound 8 µM) of the same cell line?
A: 0.275

Q: What about the relative viability (AZD6482 + Pictilisib; first compound 0.08 µM) of the same cell line?
A: 0.757

Q: What about the relative viability (AZD6482 + Pictilisib; first compound 0.253 µM) of the same cell line?
A: 0.817

Q: And the relative viability (AZD6482 + Pictilisib; first compound 0.8 µM)?
A: 0.841

Q: What about the relative viability (AZD6482 + Pictilisib; first compound 2.53 µM) of the same cell line?
A: 0.503

Q: And the relative viability (AZD6482 + Pictilisib; first compound 8 µM)?
A: 1.04

— the supplement of paper PMC10307832
